Literature values as cited in patent US20100076037A1, “Methods of Treating Neuropathic Pain with Agonists of PPAR-gamma” (priority 2006, published 2010).

Columns and labels:
[1] = cited from earlier work
rats = settings: intrathecal; cited from earlier work
PPARγ = PPARγ (Homo sapiens, UniProt P37231); settings: ECV304 cell line; cited from earlier work
[2] = system: rats subjected to spinal cord injury; settings: given before pioglitazone; cited from earlier work
[3] = 3 or 30 mg/kg; cited from earlier work
PPARalpha [4] = target: T1, PPARalpha (Homo sapiens, UniProt Q07869); settings: first value of the pair given as α/γ; read-out: EC50 for PPARalpha agonism; cited from earlier work
T1 sequence (Q07869 1-468): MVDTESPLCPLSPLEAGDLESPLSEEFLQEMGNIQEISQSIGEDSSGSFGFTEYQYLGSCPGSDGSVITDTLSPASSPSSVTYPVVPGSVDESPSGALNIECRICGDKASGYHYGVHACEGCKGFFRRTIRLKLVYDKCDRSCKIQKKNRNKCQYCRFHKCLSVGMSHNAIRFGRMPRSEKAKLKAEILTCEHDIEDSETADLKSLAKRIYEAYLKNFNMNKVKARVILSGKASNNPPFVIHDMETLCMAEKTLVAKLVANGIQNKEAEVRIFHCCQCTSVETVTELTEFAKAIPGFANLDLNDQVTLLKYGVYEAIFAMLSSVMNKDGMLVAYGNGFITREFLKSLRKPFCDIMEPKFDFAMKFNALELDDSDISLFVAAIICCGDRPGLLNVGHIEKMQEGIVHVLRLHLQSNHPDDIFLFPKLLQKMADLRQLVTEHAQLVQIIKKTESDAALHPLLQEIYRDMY

mouse (m)PPARgamma = target: T2, mouse (m)PPARgamma (Mus musculus, UniProt P37238); settings: U2 OS cells, mPPARgamma, cited from earlier work
T2 construct: expressed in transfected cells; host or cells: U2 OS

PPARalpha [5] = target: T1, PPARalpha; settings: U2 OS cells; cited from earlier work
[6] = system: multidrug resistance protein 2; settings: Caco-2; cited from earlier work
P-glycoprotein = target: T3, P-glycoprotein (Homo sapiens, UniProt P08183); settings: cited from earlier work
T3 construct: host or cells: Caco2 and MDCK-MDR1 monolayers (tie to the P-gp statement is grammatically loose)

mPPARalpha = mPPARalpha (Mus musculus, UniProt P23204); settings: read-out: EC50 reporter gene assay, U2 OS cells; cited from earlier work
diabetic patients = settings: human, in vivo; cited from earlier work

T2 sequence (P37238 whole entry): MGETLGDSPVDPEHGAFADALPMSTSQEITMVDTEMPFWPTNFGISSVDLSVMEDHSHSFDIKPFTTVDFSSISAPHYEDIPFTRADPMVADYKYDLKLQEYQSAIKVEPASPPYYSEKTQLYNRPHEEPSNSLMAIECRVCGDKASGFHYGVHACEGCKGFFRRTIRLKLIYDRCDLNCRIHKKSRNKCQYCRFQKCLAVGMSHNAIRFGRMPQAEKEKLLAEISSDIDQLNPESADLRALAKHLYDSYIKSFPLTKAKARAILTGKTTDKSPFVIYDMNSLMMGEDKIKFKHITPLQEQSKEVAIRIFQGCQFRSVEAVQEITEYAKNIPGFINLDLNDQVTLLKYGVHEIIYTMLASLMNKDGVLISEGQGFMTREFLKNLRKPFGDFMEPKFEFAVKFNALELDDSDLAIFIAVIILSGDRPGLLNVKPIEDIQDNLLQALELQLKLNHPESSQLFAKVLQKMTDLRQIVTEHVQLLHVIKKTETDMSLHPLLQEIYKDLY
T3 sequence (P08183 whole entry): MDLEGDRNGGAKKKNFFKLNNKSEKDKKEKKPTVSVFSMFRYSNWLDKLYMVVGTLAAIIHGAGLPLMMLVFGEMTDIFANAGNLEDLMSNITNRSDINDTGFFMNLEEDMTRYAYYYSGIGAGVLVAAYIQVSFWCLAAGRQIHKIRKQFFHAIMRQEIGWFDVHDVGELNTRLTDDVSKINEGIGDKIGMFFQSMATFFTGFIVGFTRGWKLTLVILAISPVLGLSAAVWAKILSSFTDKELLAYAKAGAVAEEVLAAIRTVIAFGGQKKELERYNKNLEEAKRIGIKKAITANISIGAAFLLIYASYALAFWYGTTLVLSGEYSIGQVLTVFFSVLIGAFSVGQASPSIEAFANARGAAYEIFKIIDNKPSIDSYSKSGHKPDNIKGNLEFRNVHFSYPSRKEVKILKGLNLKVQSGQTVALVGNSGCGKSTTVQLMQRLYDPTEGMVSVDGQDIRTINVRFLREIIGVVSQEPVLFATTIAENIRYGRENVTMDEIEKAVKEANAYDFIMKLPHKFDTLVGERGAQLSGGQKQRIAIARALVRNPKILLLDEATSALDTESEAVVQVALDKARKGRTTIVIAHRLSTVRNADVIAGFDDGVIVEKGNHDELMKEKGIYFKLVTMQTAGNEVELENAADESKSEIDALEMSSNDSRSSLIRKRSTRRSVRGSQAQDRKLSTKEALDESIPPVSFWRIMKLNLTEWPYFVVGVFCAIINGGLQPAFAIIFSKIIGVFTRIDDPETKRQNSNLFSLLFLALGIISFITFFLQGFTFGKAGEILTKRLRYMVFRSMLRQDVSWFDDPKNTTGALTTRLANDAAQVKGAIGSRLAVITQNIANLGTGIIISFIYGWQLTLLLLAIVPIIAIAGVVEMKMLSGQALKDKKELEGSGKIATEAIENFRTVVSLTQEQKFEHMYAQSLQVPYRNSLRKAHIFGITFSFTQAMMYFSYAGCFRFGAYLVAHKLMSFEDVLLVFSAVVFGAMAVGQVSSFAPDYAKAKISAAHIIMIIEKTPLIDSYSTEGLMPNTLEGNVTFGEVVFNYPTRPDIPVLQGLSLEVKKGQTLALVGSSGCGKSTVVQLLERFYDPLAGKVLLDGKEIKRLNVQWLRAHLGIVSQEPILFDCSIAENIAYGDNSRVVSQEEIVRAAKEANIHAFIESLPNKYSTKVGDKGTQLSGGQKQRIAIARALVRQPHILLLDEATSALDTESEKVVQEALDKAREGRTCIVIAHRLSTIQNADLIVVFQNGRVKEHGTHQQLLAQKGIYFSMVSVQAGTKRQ
Chain of PPARγ (P37231 whole entry, species assumed): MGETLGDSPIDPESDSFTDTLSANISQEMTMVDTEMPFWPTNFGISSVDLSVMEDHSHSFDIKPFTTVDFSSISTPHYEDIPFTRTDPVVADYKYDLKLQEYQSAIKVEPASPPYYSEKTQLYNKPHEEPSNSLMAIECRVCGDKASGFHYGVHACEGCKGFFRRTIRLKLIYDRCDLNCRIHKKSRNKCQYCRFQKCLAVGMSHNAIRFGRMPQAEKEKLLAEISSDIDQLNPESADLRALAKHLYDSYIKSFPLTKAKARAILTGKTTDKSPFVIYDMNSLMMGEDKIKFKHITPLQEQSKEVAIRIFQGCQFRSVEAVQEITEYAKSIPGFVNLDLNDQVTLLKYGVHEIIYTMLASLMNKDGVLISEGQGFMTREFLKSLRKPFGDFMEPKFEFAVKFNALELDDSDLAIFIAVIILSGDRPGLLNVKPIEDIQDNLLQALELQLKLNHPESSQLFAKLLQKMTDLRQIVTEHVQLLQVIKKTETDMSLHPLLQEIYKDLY
Chain of mPPARalpha (P23204 whole entry): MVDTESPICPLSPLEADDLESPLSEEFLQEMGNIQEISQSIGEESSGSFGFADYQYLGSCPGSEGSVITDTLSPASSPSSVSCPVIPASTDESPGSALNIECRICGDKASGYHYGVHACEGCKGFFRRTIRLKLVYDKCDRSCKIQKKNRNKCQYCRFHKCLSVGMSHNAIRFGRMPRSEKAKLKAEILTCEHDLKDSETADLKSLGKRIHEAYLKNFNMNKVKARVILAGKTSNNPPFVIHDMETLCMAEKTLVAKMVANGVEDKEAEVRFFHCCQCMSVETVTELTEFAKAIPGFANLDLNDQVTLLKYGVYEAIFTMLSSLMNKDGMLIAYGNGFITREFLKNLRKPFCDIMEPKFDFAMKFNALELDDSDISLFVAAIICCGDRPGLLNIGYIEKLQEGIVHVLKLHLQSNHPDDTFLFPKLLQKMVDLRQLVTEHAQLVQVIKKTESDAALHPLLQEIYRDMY

CCCCC/C=C/C=C1/C(=O)C=C[C@@H]1C/C=C\CCCC(=O)O [15dPGJ2]
mechanical allodynia (von Frey) ([1]; intrathecal, 7 days post-SNI): dose-dependently reduced
pain behavior (rats): reduction in pain behavior

CC(C)(c1ccc(OCC2CO2)cc1)c1ccc(OCC2CO2)cc1 (stereo not drawn) [BADGE, Bisphenol A diglycidyl ether]
effect on the observed anti-allodynic effects of rosiglitazone and 15dPGJ2 ([1]; in vivo): reversed
PPARγ activity (PPARγ): has PPARγ agonist activity

O=C(Nc1ccccc1)c1cc([N+](=O)[O-])ccc1Cl [GW9662, 2-chloro-5-nitro-N-phenylbenzamide]
effect of pretreatment on pioglitazone-induced motor function recovery [2]: completely abolished
threshold (in g) [3]: increased

Cc1oc(-c2ccccc2)nc1CCOc1ccc(CC2C(=O)NOC2=O)cc1 (stereo not drawn) [JTT-501]
EC50 (PPARalpha [4]): 0.4 µM

CCO[C@@H](Cc1ccc(OCCN2c3ccccc3Oc3ccccc32)cc1)C(=O)O [NNC-61-0029]
EC50 (PPARalpha [4]): 0.6 µM

Cc1cccc(Nc2cc(Cl)nc(SCC(=O)O)n2)c1C [WY-14643]
EC50 reporter gene assay (mouse (m)PPARgamma): no activity
EC50 reporter gene assay (PPARalpha [5]): no activity

CCOC(Cc1ccc(OCCc2ccc(OS(C)(=O)=O)cc2)cc1)C(=O)OC1OC(C(=O)O)C(O)C(O)C1O (stereo not drawn) [acylglucuronide metabolite]
transport in Caco2 and MDCK-MDR1 monolayers [6]: apparently transported by multidrug resistance protein 2
substrate of P-glycoprotein (P-glycoprotein): not substrates of P-glycoprotein

CC(C)(Oc1ccc(CCNC(=O)c2ccc(Cl)cc2)cc1)C(=O)O [bezafibrate]
EC50 (mouse (m)PPARgamma; read-out: EC50 reporter gene assay): 23 µM
EC50 (mPPARalpha): 24 µM

CCc1ccc(CCOc2ccc(CC3SC(=O)NC3=O)cc2)nc1 (stereo not drawn) [pioglitazone]
rates of edema (diabetic patients): 4.2%
